Laboratory results reported in patent US12274705B2, “Composition comprising CYP4A-inhibiting compound as active ingredient for preventing or treating metabolic diseases” (Korea Basic Science Institute, priority 2018, dated 2025).

Key:
[1] = test system: HepG2 cells; assay: Glucose absorption promoting effect (2-NBDG uptake) under ER stress; assay type: cell-based, human; settings: 5 μM compound
Procedure: HepG2 cells, a human liver cell line, were cultured in a high-glucose DMEM (Dulbecco's modified Eagle's medium, glucose 25 mM) medium in the presence of 10% fetal bovine serum (FBS), and then glucose uptake experiments were performed as follows.
First, HepG2 cells were grown to 1×10^4 cells/well in a 96-well plate (black, clear bottom culture plate) by the above method, and then 5 μM of each compound screened in Example 1 was added and incubated for 6 hours. Here, thapsigargin or tunicamycin, which induces endoplasmic reticulum stress, was added to hepatocytes, and then placed in an incubator at 37° C. for 24 hours to react. After that, insulin and 2-NBDG (2-(N-(7-Nitrobenz-2-oxa-1,3-diazol-4-yl)Amino)-2-Deoxyglucose) were added and reacted in an incubator at 37° C. for 3 hours, and after washing with PBS (phosphate buffered saline), fluorescence was measured with a microplate reader (Excitation: 488 nm, Emission: 508 nm).

[2] = test system: HepG2 cells; assay: Fat accumulation inhibitory activity in hepatocytes (palmitate, Nile-Red); assay type: cell-based, human; settings: 5 μM compound; palmitate 72 hours; compared with positive control HET0016
Procedure: After culturing HepG2 cells, a human liver cell line, in a high-concentration DMEM medium (Dulbecco's modified Eagle's medium, glucose 25 mM) containing 10% fetal bovine serum (FBS), an experiment was performed to measure fat accumulation by the following method.
First, HepG2 cells were grown to 5×10^3 cells/well in a 96-well plate (black, clear bottom culture plate) by the above method, and 5 μM of each compound screened in Example 1 was added thereto, followed by incubation for 6 hours. Here, palmitate, a fatty acid that induces fat accumulation in hepatocytes, is added, and then placed in an incubator at 37° C. for 72 hours to react. Thereafter, 4% paraformaldehyde was added and reacted at room temperature for 15 minutes to fix, and then Nile-Red solution was added, light was blocked, and reaction was performed at 37° C. for 10 minutes. After the reaction time, fluorescence was measured with a microplate reader (Excitation: 530 nm, Emission: 635 nm).

[3] = target: T1, CYP4A (CYP4A11) (Homo sapiens, UniProt Q02928); assay: CYP4A activity inhibition, Luciferin-4A luminescence with CYP4A expressing HepG2 cell lysate; assay type: biochemical; settings: FIG. 1: all compounds at 5 μM; FIG. 2: by concentration; compared with HET0016
T1 construct: expressed in transfected cells; host or cells: HepG2 (human liver cell line), RIPA lysate
T1 sequence (Q02928 5-519): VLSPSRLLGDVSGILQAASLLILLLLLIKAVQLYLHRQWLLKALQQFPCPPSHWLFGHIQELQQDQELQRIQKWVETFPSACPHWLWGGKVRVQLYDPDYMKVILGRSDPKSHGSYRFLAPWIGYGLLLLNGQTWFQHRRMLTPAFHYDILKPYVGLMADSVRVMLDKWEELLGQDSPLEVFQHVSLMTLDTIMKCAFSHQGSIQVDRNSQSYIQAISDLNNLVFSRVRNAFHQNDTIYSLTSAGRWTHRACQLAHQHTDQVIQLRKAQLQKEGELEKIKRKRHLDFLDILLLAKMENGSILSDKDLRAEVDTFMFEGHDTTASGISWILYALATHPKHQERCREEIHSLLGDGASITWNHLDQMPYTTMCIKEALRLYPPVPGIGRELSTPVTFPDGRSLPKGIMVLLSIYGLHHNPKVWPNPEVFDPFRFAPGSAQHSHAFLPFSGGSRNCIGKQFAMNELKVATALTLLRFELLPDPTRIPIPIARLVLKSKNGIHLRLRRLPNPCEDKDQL
Procedure: CYP4A11 DNA (GenBank: S67580.1) was transfected into HepG2 cells, a human liver cell line, and cultured in an incubator for 24 hours so that the protein was expressed. After that, cells were pulverized by adding RIPA buffer (20 mM Tris-HCl (pH 7.5), 150 mM NaCl, 1 mM Na2EDTA, 1 mM EGTA, 1% NP-40, 1% sodium deoxycholate, 2.5 mM sodium pyrophosphate, 1 mM b-glycerophosphate, 1 mM Na3VO4, 1 μg/ml leupeptin) to extract proteins, and then CYP4A activity experiment and compound screening were performed as follows. […]
After putting it in the NADPH Regeneration system (20× sol.A, 100× sol.B in water, Cal. Number: D399, Thermo Fisher SCIENTIFIC), leave it at room temperature for 1 hour to allow the CYP4A reaction to occur sufficiently, and CYP4A reaction is finished by adding Luciferin Detection reagent, and induce a luminescence reaction to occur, and the reaction was carried out at room temperature for 20 minutes. The degree of inhibition of CYP4A activity was measured by comparing the luminescence values from each well with a microplate reader.

[4] = test system: HepG2 cells; assay: Active oxygen (ROS) scavenging ability under ER stress (H2DCFDA); assay type: cell-based, human; settings: 5 μM compound; for amount of ROS: Thapsigargin or Tunicamycin; for inhibition of ROS production and removal of ROS: Thapsigargin-treated group, compared with HET0016
Procedure: After culturing HepG2 cells, a human liver cell line, in high-glucose DMEM medium (Dulbecco's modified Eagle's medium, glucose 25 mM) in the presence of 10% fetal bovine serum (FBS), an experiment was performed to measure the ability to remove reactive oxygen species by the following method.
First, HepG2 cells were grown to 1×10^4 cells/well in a 96-well plate (black, clear bottom culture plate) by the above method, and then 5 μM of each compound screened in Example 1 was added and incubated for 6 hours. After adding thapsigargin or tunicamycin to induce endoplasmic reticulum stress, the reaction was put in an incubator for 24 hours. After that, 5 μM H2DCFDA (cell-permeant 2′,7′-dichlorodihydrofluorescein diacetate) was added and reacted for 30 minutes in an incubator at 37° C. Thereafter, after washing with PBS, it was placed in an incubator at 37° C. for 30 minutes and waited for luminescence to occur. Thereafter, fluorescence was measured with a microplate reader (Excitation: 488 nm, Emission: 508 nm).

[5] = Thapsigargin or Tunicamycin, compared with positive control HET0016
[6] = Tunicamycin-treated group, compared with HET0016

Structure (SMILES): CC(=O)Nc1ccc(S(=O)(=O)N2CCN(c3ccnc4cc(Cl)ccc34)CC2)cc1 [#18-1, N-(4-((4-(7-chloroquinolin-4-yl)piperazin-1-yl)sulfonyl)phenyl)acetamide]
- glucose absorption promoting effect (2-NBDG fluorescence) [1, 5]: significant to the same or higher degree than that of the positive control group (HET0016)
- glucose absorption promoting effect (2-NBDG fluorescence) [1, 6]: more effective in promoting glucose absorption than the known HET0016 compound
- fat accumulation in liver cells (Nile-Red fluorescence) [2]: suppressed to a degree similar to that of the positive control group (HET0016)
- CYP4A inhibitory ability (luminescence) [3]: particularly excellent among the selected compounds
- amount of ROS [4]: significantly decreased
- inhibition of ROS production and removal of ROS [4]: better inhibition of ROS production and removal of ROS than HET0016

Structure (SMILES): CC(=O)Nc1ccc(S(=O)(=O)N2CCN(c3cc(C)nc4ccccc34)CC2)cc1 [#18-2, N-(4-((4-(2-methylquinolin-4-yl)piperazin-1-yl)sulfonyl)phenyl)acetamide]
- glucose absorption promoting effect (2-NBDG fluorescence) [1, 5]: significant to the same or higher degree than that of the positive control group (HET0016)
- glucose absorption promoting effect (2-NBDG fluorescence) [1, 6]: more effective in promoting glucose absorption than the known HET0016 compound
- fat accumulation in liver cells (Nile-Red fluorescence) [2]: suppressed to a degree similar to that of the positive control group (HET0016)
- CYP4A inhibitory ability (luminescence) [3]: particularly excellent among the selected compounds
- amount of ROS [4]: significantly decreased
- inhibition of ROS production and removal of ROS [4]: better inhibition of ROS production and removal of ROS than HET0016
